Source: ChEMBL document CHEMBL4229384, “Success stories of natural product-based hybrid molecules for multi-factorial diseases” (Eur J Med Chem, 2018)
Converted amounts (≈) assume the structure as drawn.

Experiments:
[1] = tested on: Mycobacterium tuberculosis; experiment: Antitubercular activity against Mycobacterium tuberculosis H37Rv; assay type: functional
Acetylcholinesterase [2] = target: T1, Acetylcholinesterase (Electrophorus electricus, UniProt O42275); experiment: Inhibition of electric eel AChE using acetylthiocholine iodide as substrate measured for 120 secs by spectrophotometric analysis
T1 sequence (O42275 whole entry): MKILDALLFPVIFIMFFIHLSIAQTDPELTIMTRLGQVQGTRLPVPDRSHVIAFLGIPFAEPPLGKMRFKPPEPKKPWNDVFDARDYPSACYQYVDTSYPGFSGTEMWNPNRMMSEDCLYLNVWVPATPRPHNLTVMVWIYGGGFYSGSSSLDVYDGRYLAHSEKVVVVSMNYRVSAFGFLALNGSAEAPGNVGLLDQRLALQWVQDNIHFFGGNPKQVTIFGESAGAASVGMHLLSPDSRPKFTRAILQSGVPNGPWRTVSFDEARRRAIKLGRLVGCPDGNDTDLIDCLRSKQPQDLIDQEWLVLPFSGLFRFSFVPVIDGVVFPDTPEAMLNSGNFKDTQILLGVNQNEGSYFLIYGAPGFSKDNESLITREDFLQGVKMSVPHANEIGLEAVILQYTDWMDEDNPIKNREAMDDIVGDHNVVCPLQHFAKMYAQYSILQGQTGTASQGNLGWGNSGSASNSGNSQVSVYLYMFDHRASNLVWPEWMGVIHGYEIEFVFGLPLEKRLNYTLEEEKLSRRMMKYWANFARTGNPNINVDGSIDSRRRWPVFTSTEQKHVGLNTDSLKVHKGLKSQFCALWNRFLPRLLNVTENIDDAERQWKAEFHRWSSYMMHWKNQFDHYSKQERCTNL

[3] = Inhibition of bovine brain tubulin polymerization after 10 mins by UV-vis spectrophotometric analysis; design: species or system Bos taurus
[4] = Antiproliferative activity against human MDA435/LCC6 cells; assay type: functional, cell-based; settings: MDA-435/LCC6
[5] = target: T2, Receptor tyrosine-protein kinase erbB-2 (Homo sapiens, UniProt P04626); experiment: Inhibition of HER2 in human MCF-7 cells after 24 hrs by immunoblotting analysis; assay type: cell-based
T2 sequence (P04626 whole entry): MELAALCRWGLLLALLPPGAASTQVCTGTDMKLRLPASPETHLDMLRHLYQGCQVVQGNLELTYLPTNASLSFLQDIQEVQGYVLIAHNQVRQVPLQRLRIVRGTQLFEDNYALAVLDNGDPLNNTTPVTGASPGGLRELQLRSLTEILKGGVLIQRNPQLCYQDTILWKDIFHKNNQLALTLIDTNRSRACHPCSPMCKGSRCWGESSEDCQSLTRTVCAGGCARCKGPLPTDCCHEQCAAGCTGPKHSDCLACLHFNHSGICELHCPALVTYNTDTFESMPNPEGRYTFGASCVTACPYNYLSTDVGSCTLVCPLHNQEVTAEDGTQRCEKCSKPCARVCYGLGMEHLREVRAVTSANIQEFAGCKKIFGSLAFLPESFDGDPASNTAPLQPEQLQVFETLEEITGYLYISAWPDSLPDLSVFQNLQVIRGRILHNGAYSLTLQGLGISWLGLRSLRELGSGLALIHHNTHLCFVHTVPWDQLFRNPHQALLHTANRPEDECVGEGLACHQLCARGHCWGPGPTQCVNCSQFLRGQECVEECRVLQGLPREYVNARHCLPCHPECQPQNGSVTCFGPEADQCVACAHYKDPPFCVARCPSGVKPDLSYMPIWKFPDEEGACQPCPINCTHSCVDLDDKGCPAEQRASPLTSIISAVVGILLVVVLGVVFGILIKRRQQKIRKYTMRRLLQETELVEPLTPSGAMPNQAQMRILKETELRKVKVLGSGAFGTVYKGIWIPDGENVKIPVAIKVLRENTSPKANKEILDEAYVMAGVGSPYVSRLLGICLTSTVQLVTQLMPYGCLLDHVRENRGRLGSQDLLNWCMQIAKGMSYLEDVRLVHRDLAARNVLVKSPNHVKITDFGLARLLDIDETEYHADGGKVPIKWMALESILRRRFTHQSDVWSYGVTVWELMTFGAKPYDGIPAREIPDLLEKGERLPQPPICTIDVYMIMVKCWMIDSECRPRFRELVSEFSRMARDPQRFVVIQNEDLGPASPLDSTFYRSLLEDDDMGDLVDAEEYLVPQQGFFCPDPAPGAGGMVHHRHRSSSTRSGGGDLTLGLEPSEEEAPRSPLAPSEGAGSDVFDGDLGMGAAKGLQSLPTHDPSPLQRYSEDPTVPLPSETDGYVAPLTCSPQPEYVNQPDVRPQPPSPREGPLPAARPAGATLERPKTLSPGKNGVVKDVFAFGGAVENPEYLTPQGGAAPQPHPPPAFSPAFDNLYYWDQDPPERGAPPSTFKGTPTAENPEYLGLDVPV

SK-BR-3 = experiment: Growth inhibition of human SKBR3 cells; assay type: functional, cell-based
P338 = experiment: Cytotoxicity against mouse […] cells assessed as reduction in cell viability after 24 to 72 hrs by MTT assay; assay type: functional, cell-based
[6] = Cytotoxicity against bovine GM07373 cells assessed as reduction in cell viability after 24 to 72 hrs by MTT assay; assay type: cell-based; settings: Bos taurus
IGR-1 = experiment: Cytotoxicity against human IGR-1 cells assessed as reduction in cell viability after 24 to 72 hrs by MTT assay; assay type: functional, cell-based
[7] = Cytotoxicity against mouse […] cells assessed as reduction in cell viability after 24 to 72 hrs by MTT assay; assay type: cell-based
Estrogen receptor [8] = target: T3, Estrogen receptor (Homo sapiens, UniProt P03372); experiment: Inhibition of human estrogen receptor alpha expressed in human MCF7 cells assessed as reduction in estrogen-induced transcriptional activation after 6 hrs by beta galactosidase reporter gene assay; assay type: cell-based
T3 sequence (P03372 whole entry): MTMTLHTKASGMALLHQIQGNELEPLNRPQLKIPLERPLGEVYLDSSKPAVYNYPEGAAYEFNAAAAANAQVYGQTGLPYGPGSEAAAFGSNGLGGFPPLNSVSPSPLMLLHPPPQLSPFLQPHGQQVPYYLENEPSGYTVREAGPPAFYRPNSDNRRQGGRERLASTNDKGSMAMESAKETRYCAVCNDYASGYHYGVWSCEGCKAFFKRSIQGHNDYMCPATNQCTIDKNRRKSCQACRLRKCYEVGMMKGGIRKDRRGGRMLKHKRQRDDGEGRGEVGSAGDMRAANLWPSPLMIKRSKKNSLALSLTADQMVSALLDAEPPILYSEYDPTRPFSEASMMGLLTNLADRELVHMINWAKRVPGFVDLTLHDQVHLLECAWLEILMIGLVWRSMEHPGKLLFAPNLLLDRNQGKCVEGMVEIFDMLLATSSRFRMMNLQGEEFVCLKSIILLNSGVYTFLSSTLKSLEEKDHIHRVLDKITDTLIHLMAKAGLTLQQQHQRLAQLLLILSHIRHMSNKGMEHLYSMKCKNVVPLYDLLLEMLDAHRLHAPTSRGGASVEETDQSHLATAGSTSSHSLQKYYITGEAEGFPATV

Estrogen receptor [9] = target: T3, Estrogen receptor; experiment: Inhibition of human estrogen receptor alpha expressed in human MDA-MB-231 cells assessed as reduction in estrogen-induced transcriptional activation after 6 hrs by beta galactosidase reporter gene assay; assay type: cell-based
[10] = target: T4, Estrogen receptor (Homo sapiens) (UniProt P03372); experiment: Displacement of [3H] estradiol from human estrogen receptor alpha after 18 hrs by scintillation counting analysis
T4 sequence (whole entry): T3 sequence (P03372 whole entry)

Estrogen receptor [11] = target: T3, Estrogen receptor; experiment: Inhibition of human estrogen receptor alpha expressed in HEK293 cells assessed as reduction in estrogen-induced transcriptional activation after 6 hrs by beta galactosidase reporter gene assay; assay type: cell-based
Estrogen receptor [12] = target: T3, Estrogen receptor; experiment: Inhibition of human estrogen receptor alpha expressed in human LNCAP cells assessed as reduction in estrogen-induced transcriptional activation after 6 hrs by beta galactosidase reporter gene assay; assay type: cell-based
[13] = target: T5, Phospholipase A2, membrane associated (Homo sapiens) (UniProt P14555); experiment: Inhibition of human sPLA2-2A assessed as reduction in PGE2 level at 10 uM relative to control
T5 sequence (whole entry): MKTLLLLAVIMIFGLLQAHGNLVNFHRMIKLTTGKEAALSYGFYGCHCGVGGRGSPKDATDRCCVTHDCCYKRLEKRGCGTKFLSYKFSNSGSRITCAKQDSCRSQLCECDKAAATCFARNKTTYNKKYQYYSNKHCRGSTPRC

[14] = target: T5, Phospholipase A2, membrane associated (Homo sapiens); experiment: Inhibition of human sPLA2-2A at 100 uM relative to control
[15] = target: T5, Phospholipase A2, membrane associated (Homo sapiens); experiment: Inhibition of human sPLA2-2A assessed as reduction in nitric oxide level at 10 uM relative to control
[16] = target: Nitric oxide synthase, inducible (Rattus norvegicus, UniProt Q06518); experiment: Inhibition of rat iNOS after 12 to 24 hrs in presence of [gamma32P]ATP by electrophoretic mobility shift assays
Sequence of Nitric oxide synthase, inducible (Q06518 whole entry): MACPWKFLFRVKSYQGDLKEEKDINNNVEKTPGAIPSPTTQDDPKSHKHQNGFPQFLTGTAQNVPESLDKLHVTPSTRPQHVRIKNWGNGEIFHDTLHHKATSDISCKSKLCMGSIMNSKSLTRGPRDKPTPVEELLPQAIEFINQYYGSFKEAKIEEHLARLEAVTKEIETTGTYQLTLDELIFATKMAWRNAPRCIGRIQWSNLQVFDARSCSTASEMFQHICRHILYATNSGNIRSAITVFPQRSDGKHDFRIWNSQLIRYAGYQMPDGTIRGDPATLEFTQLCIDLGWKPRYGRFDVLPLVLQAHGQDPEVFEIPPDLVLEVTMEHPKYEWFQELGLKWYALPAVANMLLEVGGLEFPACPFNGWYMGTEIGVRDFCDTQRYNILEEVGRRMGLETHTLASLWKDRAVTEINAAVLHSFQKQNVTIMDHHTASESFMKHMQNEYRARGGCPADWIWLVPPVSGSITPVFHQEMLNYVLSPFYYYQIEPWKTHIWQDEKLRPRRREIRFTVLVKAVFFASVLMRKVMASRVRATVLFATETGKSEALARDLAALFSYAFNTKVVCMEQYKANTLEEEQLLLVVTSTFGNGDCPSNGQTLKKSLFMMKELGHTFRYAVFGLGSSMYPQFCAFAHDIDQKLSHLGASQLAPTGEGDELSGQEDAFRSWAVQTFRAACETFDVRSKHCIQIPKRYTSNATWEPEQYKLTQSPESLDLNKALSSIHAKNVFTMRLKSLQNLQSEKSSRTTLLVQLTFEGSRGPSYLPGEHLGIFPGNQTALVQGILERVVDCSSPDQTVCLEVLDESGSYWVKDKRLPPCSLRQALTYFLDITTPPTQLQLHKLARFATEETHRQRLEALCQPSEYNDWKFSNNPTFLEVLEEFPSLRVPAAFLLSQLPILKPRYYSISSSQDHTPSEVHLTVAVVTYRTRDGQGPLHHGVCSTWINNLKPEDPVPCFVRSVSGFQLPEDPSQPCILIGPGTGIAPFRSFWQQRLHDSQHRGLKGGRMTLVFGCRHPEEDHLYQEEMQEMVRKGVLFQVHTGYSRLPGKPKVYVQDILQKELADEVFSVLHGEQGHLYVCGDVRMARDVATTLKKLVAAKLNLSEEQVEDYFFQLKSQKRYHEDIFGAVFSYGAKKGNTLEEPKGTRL

A549 = experiment: Cytotoxicity against human A549 cells assessed as reduction in cell viability; assay type: functional; settings: read-out: ED50 (the source's name)
[17] = target: Amyloid-beta precursor protein (Homo sapiens, UniProt P05067); experiment: Inhibition of beta amyloid (unknown origin) deposition
Sequence of Amyloid-beta precursor protein (P05067 whole entry): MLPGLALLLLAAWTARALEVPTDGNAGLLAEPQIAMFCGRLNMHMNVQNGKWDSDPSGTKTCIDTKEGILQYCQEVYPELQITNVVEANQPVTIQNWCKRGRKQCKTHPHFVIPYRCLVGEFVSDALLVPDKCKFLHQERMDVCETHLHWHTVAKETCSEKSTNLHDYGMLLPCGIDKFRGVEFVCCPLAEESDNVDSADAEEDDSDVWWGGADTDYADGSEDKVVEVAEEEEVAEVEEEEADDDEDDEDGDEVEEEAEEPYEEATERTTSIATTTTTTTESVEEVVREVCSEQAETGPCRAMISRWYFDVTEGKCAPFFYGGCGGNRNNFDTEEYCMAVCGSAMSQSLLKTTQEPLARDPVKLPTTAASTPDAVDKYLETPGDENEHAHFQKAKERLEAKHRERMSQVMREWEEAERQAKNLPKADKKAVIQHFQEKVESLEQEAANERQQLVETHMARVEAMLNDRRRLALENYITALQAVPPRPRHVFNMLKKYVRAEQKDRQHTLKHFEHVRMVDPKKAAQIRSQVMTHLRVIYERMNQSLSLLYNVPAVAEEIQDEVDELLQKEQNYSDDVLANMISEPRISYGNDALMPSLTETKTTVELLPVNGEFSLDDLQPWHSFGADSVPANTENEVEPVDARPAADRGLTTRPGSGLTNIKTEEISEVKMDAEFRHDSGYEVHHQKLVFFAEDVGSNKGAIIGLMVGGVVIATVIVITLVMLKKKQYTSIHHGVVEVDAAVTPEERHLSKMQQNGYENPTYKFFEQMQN

[18] = Antioxidant activity assessed as reduction in oxidative stress; assay type: functional
[19] = target: Acetylcholinesterase (Electrophorus electricus) (UniProt O42275); experiment: Potency index, ratio of galantamine IC50 to test compound IC50 for electric eel AChE
Sequence of Acetylcholinesterase (Electrophorus electricus) (O42275 24-633 limits assumed): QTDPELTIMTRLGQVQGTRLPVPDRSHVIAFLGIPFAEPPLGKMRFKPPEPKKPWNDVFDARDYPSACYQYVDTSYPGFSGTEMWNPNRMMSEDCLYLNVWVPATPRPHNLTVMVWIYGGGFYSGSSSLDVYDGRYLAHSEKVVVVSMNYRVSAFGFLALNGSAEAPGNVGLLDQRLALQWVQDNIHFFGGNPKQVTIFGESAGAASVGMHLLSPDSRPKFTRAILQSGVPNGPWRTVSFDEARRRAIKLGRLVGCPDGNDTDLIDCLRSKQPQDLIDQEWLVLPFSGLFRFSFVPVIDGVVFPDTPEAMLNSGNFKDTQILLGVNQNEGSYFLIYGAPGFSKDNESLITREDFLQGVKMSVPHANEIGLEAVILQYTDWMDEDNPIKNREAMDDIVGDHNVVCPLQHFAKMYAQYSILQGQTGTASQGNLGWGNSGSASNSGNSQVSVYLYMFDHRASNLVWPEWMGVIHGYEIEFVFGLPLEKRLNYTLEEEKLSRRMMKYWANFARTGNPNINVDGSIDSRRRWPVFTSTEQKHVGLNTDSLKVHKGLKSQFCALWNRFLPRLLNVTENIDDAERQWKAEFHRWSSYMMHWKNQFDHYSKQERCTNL

Acetylcholinesterase [20] = target: T1, Acetylcholinesterase; experiment: Inhibition of electric eel AChE
[21] = target: T2, Receptor tyrosine-protein kinase erbB-2; experiment: Inhibition of HER2 in human MCF-7 cells; assay type: cell-based
Estrogen receptor [22] = target: T3, Estrogen receptor; experiment: Inhibition of estrogen receptor in human MCF-7 cells; assay type: cell-based

Which MIC [1] does the source give for `C[C@@]12CC[C@@H]3[C@@](CC[C@H]4[C@@]3(C)CCC[C@@]4(C)C(=O)O)(C/C1=N\NC(=O)c1ccncc1)C2` here?
The MIC was 10 to 20 µg/mL (≈ 22.9 to 45.7 µM).

With `COc1ccc2c3c1O[C@H]1C[C@@H](O)CC[C@@]31CCN(CCCCCCCCCCCC[N+]1=Cc3ccc(OC)c4c3[C@@]3(C=C[C@H](O)C[C@@H]3O4)CC1)C2` as the molecule, how does the IC50 (Acetylcholinesterase [2]) read?
Its IC50 is 0.012 µM.

With `COc1cc2c(ccc1=O)[C@H]1CC[C@]3(C)[C@@H](O)CC[C@H]3[C@@H]1CC2` as the molecule, how does the IC50 [3] read?
The IC50 was 2.1 µM.

With `CC(=O)O[C@H]1C(=O)[C@@]2(C)[C@H]([C@@H]3OC(=O)c4ccccc4OC/C=C/CC[C@H](NC(=O)OC(C)(C)C)[C@@H](O)C(=O)O[C@@H]4C[C@]3(O)C(C)(C)C1=C4C)[C@]1(OC(C)=O)CO[C@@H]1C[C@@H]2O` as the molecule, how does the IC50 [4] read?
Its IC50 is 0.39 µM.

With `CO[C@H]1/C=C\C=C(/C)C(=O)NC2=CC(=O)C(NCCCCNC3=C4C[C@@H](C)C[C@H](OC)[C@H](O)[C@@H](C)/C=C(\C)[C@H](OC(N)=O)[C@@H](OC)/C=C\C=C(/C)C(=O)NC(=CC3=O)C4=O)=C(C[C@@H](C)C[C@H](OC)[C@H](O)[C@@H](C)/C=C(\C)[C@@H]1OC(N)=O)C2=O` as the molecule, how does the IC50 [5] read?
The IC50 was 0.06 µM.

What about the IC50 (SK-BR-3) of the same molecule?
Its IC50 is 0.02 µM.

For `CC(C)[C@@H](C)/C=C/[C@@H](C)[C@H]1CC[C@H]2c3ccc4c(c3CC[C@]12C)C(=O)c1c(O)ccc(O)c1C4=O`, which IC50 (P338) is on record?
The IC50 was 49 µM.

What about the IC50 [6] of the same molecule?
The IC50 was 34 µM.

And the IC50 (IGR-1)?
Its IC50 is 23 µM.

What about the IC50 [7] of the same molecule?
The IC50 was 23 µM.

With `C[C@]12CC[C@@H]3c4ccc(O)cc4CC[C@H]3[C@@H]1CC[C@@]2(O)C#CC(=O)OCC1CC#C/C=C\C#CCC1` (some centres not stated) as the molecule, how does the IC50 (Estrogen receptor [8]) read?
Its IC50 is 31 µM.

And the IC50 (Estrogen receptor [9])?
Its IC50 is 48 µM.

And the Activity [10]?
Its Activity is 0.51 µM.

And the IC50 (Estrogen receptor [11])?
Its IC50 is 10 µM.

What about the IC50 (Estrogen receptor [12]) of the same molecule?
The IC50 was 33 µM.

For `C[C@@H](C1=CC[C@@H]2[C@@H]3[C@@H](O)[C@H](O)[C@H]4C[C@@H](O)CC[C@]4(C)[C@H]3CC[C@]12C)[C@@H](O)C1=CC(=O)OC1O` (some centres not stated), which inhibition [13] is on record?
The inhibition was 72%.

And the inhibition [14]?
Its inhibition is 63%.

What about the inhibition [15] of the same molecule?
Its inhibition is 64%.

With `C[C@@]12CC[C@@H]3[C@@](CC[C@H]4[C@@]3(C)CCC[C@@]4(C)C(=O)O)(C/C1=N\NC(=O)c1ccccn1)C2` as the molecule, how does the MIC [1] read?
Its MIC is 10 to 20 µg/mL (≈ 22.9 to 45.7 µM).

For `CC1(C)CC[C@]2(C(=O)O)CC[C@]3(C)C(=CC[C@@H]4[C@@]5(C)C=CC(=O)C=C5CC[C@]43C)[C@@H]2C1`, which IC50 [16] is on record?
Its IC50 is 0.9 µM.

With `COc1ccc2c(c1)CC[C@@H]1[C@@H]2CC[C@]2(C)CO[C@@]3(C[C@@H](O)C(CO)=CO3)C[C@@H]12` as the molecule, how does the EC50 (A549) read?
Its EC50 is 23 µM.

With `O=C(CCCCC1CCSS1)NCCCNc1c2c(nc3cc(Cl)ccc13)CCCC2` (configuration not stated) [LIPOCRINE] as the molecule, how does the IC50 [17] read?
Its IC50 is 45 µM.

What about the IC50 [18] of the same molecule?
Its IC50 is 10 µM.

Which Ratio IC50 [19] does the source give for `COc1ccc2c3c1O[C@H]1C[C@@H](O)C=C[C@]31CC[N+](CCCCCCCCCCN1C(=O)c3ccccc3C1=O)=C2` here?
Its Ratio IC50 is 16 to 36.

What about the IC50 (Acetylcholinesterase [20]) of the same molecule?
The IC50 was 0.022 µM.

Which IC50 [21] does the source give for `CO[C@H]1/C=C\C=C(/C)C(=O)NC2=CC(=O)C(NCC#CCC[C@@H]3C[C@H]4[C@@H]5CCc6cc(O)ccc6[C@H]5CC[C@]4(C)[C@H]3O)=C(C[C@@H](C)C[C@H](OC)[C@H](O)[C@@H](C)/C=C(\C)[C@@H]1OC(N)=O)C2=O` (stereo in doubt) here?
Its IC50 is 0.1 µM.

And the IC50 (Estrogen receptor [22])?
The IC50 was 0.22 µM.
